Experimental data as given in ChEMBL document CHEMBL3351527, “Multitarget drug design strategy: quinone-tacrine hybrids designed to block amyloid-β aggregation and to exert anticholinesterase and antioxidant effects” (J Med Chem, 2014).
Calls of active or inactive are those of the source. The calls are words filed in the database; no cut-off is given here.

Assays:
Acetylcholinesterase = Acetylcholinesterase (Homo sapiens, UniProt P22303)
Description: Inhibition of human recombinant AChE after 5 mins by Ellman method

[1] = Cytotoxicity against rat CGN cells assessed as reduction in cell viability after 24 hrs by MTT assay; assay type: cell-based
[2] = Cytotoxicity against mouse Neuro2a cells assessed as reduction in cell viability after 24 hrs by MTT assay; assay type: cell-based; settings: n2a
Cholinesterase = Cholinesterase (Homo sapiens, UniProt P06276)
Chain of Cholinesterase (P06276 whole entry): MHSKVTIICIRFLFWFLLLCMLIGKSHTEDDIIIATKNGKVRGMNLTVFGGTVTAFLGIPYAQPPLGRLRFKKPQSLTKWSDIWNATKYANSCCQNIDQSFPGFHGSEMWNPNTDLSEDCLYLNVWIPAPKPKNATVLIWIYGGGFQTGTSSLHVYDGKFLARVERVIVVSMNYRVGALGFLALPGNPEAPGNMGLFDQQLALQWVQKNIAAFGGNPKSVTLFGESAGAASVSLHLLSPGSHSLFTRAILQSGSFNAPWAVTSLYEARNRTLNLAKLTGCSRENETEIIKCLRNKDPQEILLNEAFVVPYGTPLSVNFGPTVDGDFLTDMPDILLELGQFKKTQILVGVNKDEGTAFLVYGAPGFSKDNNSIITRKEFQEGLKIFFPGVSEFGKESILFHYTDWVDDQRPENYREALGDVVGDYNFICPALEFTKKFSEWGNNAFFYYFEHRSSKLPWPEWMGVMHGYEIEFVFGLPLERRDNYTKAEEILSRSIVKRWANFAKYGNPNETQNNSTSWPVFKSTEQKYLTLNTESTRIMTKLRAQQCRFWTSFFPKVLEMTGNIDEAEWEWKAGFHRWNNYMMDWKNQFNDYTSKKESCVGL
Description: Inhibition of human plasmatic BChE after 5 mins by Ellman method

Rattus norvegicus [3] = assay: Ex vivo inhibition of AChE in ip dosed Wistar rat telencephalon measured 1 hr post dose by colorimetric method; assay type: functional, organism-based
T67 [4] = assay: Antioxidant activity in tert-butyl hydroperoxide-stimulated human T67 cells assessed as reduction in intracellular ROS production at 10 uM after 24 hrs by spectrophotometry in presence of sulforaphane; assay type: functional, cell-based
HepG2 = assay: Hepatotoxicity in human HepG2 cells assessed as reduction in cell viability at 12.5 to 50 uM after 24 hrs by MTT assay; assay type: toxicity, cell-based; settings: hepg2, 24 h
T67 [5] = assay: Antioxidant activity in tert-butyl hydroperoxide-stimulated human T67 cells assessed as reduction in intracellular ROS production at 10 uM after 24 hrs by spectrophotometry; assay type: functional, cell-based
[6] = Cytotoxicity against rat CGN cells assessed as cell viability at 12.5 uM after 24 hrs by MTT assay relative to control; assay type: cell-based; settings: read-out: Activity
N2a = assay: Neuroprotective effect in amyloid beta-stimulated mouse Neuro2a cells assessed as increase in cell viability at 12.5 uM after 24 hrs by MTT assay; assay type: functional, cell-based
[7] = Cytotoxicity against mouse Neuro2a cells assessed as cell viability at 12.5 uM after 24 hrs by MTT assay relative to control; assay type: cell-based, N2a; settings: read-out: Activity
Rattus norvegicus [8] = assay: Ex vivo inhibition of AChE in Wistar rat cerebellum at 10 or 50 umol/kg, ip measured 1 hr post dose by colorimetric method; assay type: functional, organism-based

Chain of Acetylcholinesterase (P22303 whole entry): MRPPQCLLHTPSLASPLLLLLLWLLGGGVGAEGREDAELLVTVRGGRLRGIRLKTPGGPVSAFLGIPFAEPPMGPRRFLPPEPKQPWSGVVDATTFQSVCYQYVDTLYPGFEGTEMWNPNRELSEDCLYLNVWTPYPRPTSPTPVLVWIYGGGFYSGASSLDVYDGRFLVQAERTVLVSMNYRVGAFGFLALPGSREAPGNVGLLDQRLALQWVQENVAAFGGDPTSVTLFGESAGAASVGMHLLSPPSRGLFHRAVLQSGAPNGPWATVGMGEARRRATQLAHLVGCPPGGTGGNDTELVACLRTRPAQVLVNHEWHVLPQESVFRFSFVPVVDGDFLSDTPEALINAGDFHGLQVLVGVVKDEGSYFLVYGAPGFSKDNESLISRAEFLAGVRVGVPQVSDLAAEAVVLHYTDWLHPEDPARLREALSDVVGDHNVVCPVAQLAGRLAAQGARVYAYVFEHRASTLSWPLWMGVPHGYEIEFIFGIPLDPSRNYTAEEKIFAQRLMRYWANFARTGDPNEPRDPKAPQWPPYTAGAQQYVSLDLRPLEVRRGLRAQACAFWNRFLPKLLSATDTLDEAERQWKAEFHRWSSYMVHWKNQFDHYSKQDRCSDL

Compound | IC50 (Acetylcholinesterase) [nM] | Activity [1] | Activity [2] | IC50 (Cholinesterase) [nM] | inhibition (Rattus norvegicus [3]) | Activity (T67 [4]) | Activity (HepG2) | Activity (T67 [5]) | viability at 24 h, 12.5 µM [6] [%] | Activity (N2a) | viability at 24 h, 12.5 µM [7] [%] | inhibition (Rattus norvegicus [8])
O=C1C(Cl)=C(NCCNc2c3c(nc4ccccc24)CCCC3)C(=O)c2ccccc21 | 96.1 | Toxic | Toxic | 96.1 | – | – | – | – | – | – | – | –
COc1ccc2nc3c(c(NCCNC4=CC(=O)c5ccccc5C4=O)c2c1)CCCC3 | 2530 | Toxic | Toxic | 501 | – | – | – | – | – | – | – | –
O=C1C(Cl)=C(NCCCNc2c3c(nc4ccccc24)CCCC3)C(=O)c2ccccc21 | 38 | Toxic | Toxic | 47.8 | – | – | – | – | – | – | – | –
COc1ccc2nc3c(c(NCCNC4=C(Cl)C(=O)c5ccccc5C4=O)c2c1)CCCC3 | 1370 | Toxic | Toxic | 970 | – | – | – | – | – | – | – | –
O=C1C(NCCNc2c3c(nc4ccccc24)CCCC3)=CC(=O)c2c(O)cccc21 | 24.7 | Toxic | Toxic | 41.4 | – | – | – | – | – | – | – | –
O=C1C(Cl)=C(NCCNc2c3c(nc4cc(Cl)ccc24)CCCC3)C(=O)c2ccccc21 | 3.21 | Toxic | Toxic | 287 | – | – | – | – | – | – | – | –
O=C1C=C(NCCNc2c3c(nc4cc(Cl)ccc24)CCCC3)C(=O)c2ccccc21 | 1.93 | Toxic | Non-toxic | 256 | Dose-dependent effect | Active | Non-toxic | inactive | 75 | Active | 105 | inactive
COc1ccc2nc3c(c(NCCCNC4=C(Cl)C(=O)c5ccccc5C4=O)c2c1)CCCC3 | 809 | Toxic | Toxic | 742 | – | – | – | – | – | – | – | –
O=C1C(Cl)=C(NCCCNc2c3c(nc4cc(Cl)ccc24)CCCC3)C(=O)c2ccccc21 | 8.94 | Toxic | Toxic | 234 | – | – | – | – | – | – | – | –
O=C1C=C(NCCCNc2c3c(nc4cc(Cl)ccc24)CCCC3)C(=O)c2ccccc21 | 5.4 | Toxic | Non-toxic | 197 | – | – | – | – | – | – | – | –
COc1ccc2nc3c(c(NCCNC4=CC(=O)c5c(O)cccc5C4=O)c2c1)CCCC3 | 651 | Toxic | Toxic | 1280 | – | – | – | – | – | – | – | –
O=C1C=C(NCCCNc2c3c(nc4ccccc24)CCCC3)C(=O)c2ccccc21 | 53.7 | Toxic | Non-toxic | 19.1 | – | – | – | – | – | – | – | –
O=C1C(NCCCNc2c3c(nc4ccccc24)CCCC3)=CC(=O)c2c(O)cccc21 | 103 | Toxic | Toxic | 14.5 | – | – | – | – | – | – | – | –
O=C1C(NCCNc2c3c(nc4cc(Cl)ccc24)CCCC3)=CC(=O)c2c(O)cccc21 | 0.72 | Toxic | Toxic | 542 | Dose-dependent effect | Active | – | inactive | 73.5 | Active | 85.6 | inactive
O=C1C(NCCCNc2c3c(nc4cc(Cl)ccc24)CCCC3)=CC(=O)c2c(O)cccc21 | 9.24 | Toxic | Toxic | 258 | – | – | – | – | – | – | – | –
COc1ccc2nc3c(c(NCCCNC4=CC(=O)c5c(O)cccc5C4=O)c2c1)CCCC3 | 348 | Toxic | Toxic | 329 | – | – | – | – | – | – | – | –
COc1ccc2nc3c(c(NCCCNC4=CC(=O)c5ccccc5C4=O)c2c1)CCCC3 | 6150 | Toxic | Non-toxic | 635 | – | – | – | – | – | – | – | –
O=C1C=C(NCCNc2c3c(nc4ccccc24)CCCC3)C(=O)c2ccccc21 | 14.3 | Toxic | Non-toxic | 5.45 | – | – | – | – | – | – | – | –
